Assays:
P. aeruginosa PAO1 [1] = assay: TS dose response assay (biofilm and planktonic growth); assay type: cell-based, Pseudomonas aeruginosa
Experimental: Briefly, P. aeruginosa was inoculated in 5 mL of LB and grown at 37° C. overnight, shaking at 200 rpm, and subsequently standardized to an OD600 of ˜ 0.1 in 10:90. For the initial screen, 1 mM compound stocks in DMSO were diluted 1:100 in standardized cell suspension (1.5 μL of compound stock in 148.5 μL of cell suspension) to a final concentration of 10 μM. Control wells contained 10:90 plus 1% DMSO (sterility control) or standardized cell suspension plus 1% DMSO (growth control). Biofilms were formed on polystyrene peg lids (Nunc). After placement of the peg lid, the plate was sealed with parafilm to prevent evaporation and incubated for 16 h at 37° C., 200 rpm. Following incubation, the 96-peg lid was removed and planktonic density in the 96 well plate measured at OD600 to assess the effect of test compounds on bacterial growth. The lid was transferred to a new microtiter plate containing 200 μl of 1× phosphate-buffered saline (PBS) per well for 10 min to wash off any loosely adherent bacterial cells, then to a microtiter plate containing 200 μL of 0.1% (wt/vol) crystal violet (CV) per well for 15 min. Following staining, the lid was washed with 70 mL of dH2O, in a single well tray, for 10 min. This step was repeated four times to ensure complete removal of excess CV. The lid was transferred to a 96-well plate containing 200 μL of 33% (vol/vol) acetic acid per well for 5 min to elute the bound CV. The absorbance of the eluted CV was measured at 600 nm (BioTek ELx800), and the results plotted as percent of the DMSO control using Prism (Graphpad). Screens were performed in duplicate. […]. Compounds of interest were further evaluated using the same assay but over a wider range of concentrations (dose-response assay). […].
For TS dose response assays, TS stock solutions were diluted in DMSO and 2 μL of the resulting solutions plus 148 μL of a bacterial suspension standardized to an OD600 of ˜0.1 in 10:90 were added to a 96 well plate in triplicate, as described above. Control wells contained 148 μL of 10:90+1.3% DMSO (sterility control) or standardized bacterial suspension+1.3% DMSO (growth control). For ethylenediamine-N,N′-bis(2-hydroxyphenylacetic acid) (EDDHA) alone or with FeCl3 experiments, 2 μL of each were added as aqueous solutions to reach final concentrations of 0.1 μM EDDHA and 100 μM FeCl3, and the amount of bacterial suspension adjusted to keep the total well volume at 150 μL. Controls for EDDHA and FeCl3 were 2 μL of sterile dH2O. Biofilms were grown for 16 h at 37° C., 200 rpm, then stained and quantified as described above. Assays were performed in triplicate and results were graphed using Prism (Graphpad) as a percentage of the DMSO control.
Deletion mutants lacking the outer membrane components of the 4 major resistance-nodulation-division (RND) efflux systems of P. aeruginosa (MexAB-OprM, MexXY-OprM, MexCD-OprJ, and MexEF-OpmD) were generated. Briefly, the pairs of primers listed in Table 3 were used to amplify regions up- and downstream of the gene to be deleted. The PCR products were digested with the restriction enzymes indicated in the primer sequences and the resulting fragments ligated into the suicide vector pEX18Gm. After DNA sequencing validation of the constructs, they were introduced into E. coli SM10 for biparental mating into P. aeruginosa PAO1. Mating mixtures were plated on Pseudomonas isolation agar containing 200 μg/ml gentamicin (Gm) to counterselect the donor. Gm-sensitive double recombinants were selected on LB agar, with no salt and with 5% (wt/vol) sucrose. Gm-sensitive deletion mutants were identified by PCR and validated by DNA sequencing of the deletion junction.

[2] = test system: P. aeruginosa PAO1 and PA14 expressing Tsr; assay: TS susceptibility of P. aeruginosa expressing tsr in trans from pUCP20; assay type: cell-based, Pseudomonas aeruginosa; conditions: VBMM
Experimental: A) Growth of PAO1; B) Growth of PA14. Each assay was performed at least 3 times in triplicate; **** p<0.0001.
The tsr gene from pIJ6902 was PCR-amplified using primers 5′[…]-3′ and 5′[…]-3′. Both the PCR product and pUCP20 vector were digested with SmaI and HindIII, gel-purified, and ligated at a 1:3 molar ratio using T4 DNA ligase. The ligated DNA was transformed into E. coli DH5a and transformants selected on LB agar containing 100 μg/mL ampicillin and 5-bromo-4-chloro-3-indolyl-β-D-galactopyranoside for blue-white selection. Plasmids from white colonies were purified using a GeneJet Plasmid Miniprep kit (Thermo Scientific) following the manufacturer's protocols. After verification by restriction digest and DNA sequencing, pUCP20 and pUCP20-tsr were each introduced into P. aeruginosa PAO1 and PA14 by electroporation. Transformants were selected on LB agar containing 200 μg/mL carbenicillin.

[3] = Chrome azurol S (CAS) plate assay; assay type: physicochemical; conditions: 5 μl of 2 mg/ml; room temperature 1 h
P. aeruginosa PAO1 [4] = assay: Checkerboard assays of TS with DFP, DSX or 10% serum; assay type: cell-based, Pseudomonas aeruginosa; conditions: 10:90 + 10% heat-inactivated mouse or human serum, regardless of DSX
Experimental: Human serum (Corning) and mouse serum (Equitech-Bio) were stored at −20° C. Sera were aliquoted into 5-ml culture tubes by thawing once at 37° C. for 30 min with occasional gentle mixing. Culture tubes were frozen at −20° C. until use. To make 10% serum solutions, serum was thawed for 10 min at 37° C. and then heat inactivated at 57° C. for 30 min. Two milliliters of heat-inactivated serum were added to 18 ml of 10:90 medium and gently mixed. This 10% serum solution was used for checkerboard assays.
Checkerboard assays were set-up using Nunc 96-well plates in an 8-well by 8-well format. Two columns were allocated for vehicle controls and two columns for sterility controls. Vehicle controls contained 2 μL DMSO plus 2 μL DFP solvent for checkerboards with TS and DFP or 4 μL DMSO for TS and DSX, in 146 μL of 10:90 medium or 10% serum inoculated with PA14 or PAO1-KP as described in Growth Curves. Sterile controls contained the same components in 10:90 medium or 10% serum, without cells. Serial dilutions of TS—with 17 μg/mL being the highest final concentration—were added along the y axis of the checkerboard (increasing concentration from bottom to top) whereas serial dilutions of DFP or DSX—with 512 μg/mL being the highest final concentration—were added along the x axis (increasing concentration from left to right). The final volume of each well was 150 μL and each checkerboard was repeated at least three times. Plates were incubated and the final OD600 determined as detailed above.

[5] = PAO1, 10:90 medium, dose-dependent, up to 10 μM TS

## C=C(NC(=O)C(=C)NC(=O)c1csc(C2=N[C@@H]3c4csc(n4)[C@H]4NC(=O)c5csc(n5)[C@H]([C@](C)(O)[C@@H](C)O)NC(=O)[C@H]5CSC(=N5)/C(=C/C)NC(=O)[C@H]([C@@H](C)O)NC(=O)c5csc(n5)[C@]3(CC2)NC(=O)[C@H](C)NC(=O)C(=C)NC(=O)[C@H](C)NC(=O)[C@H]([C@@H](C)CC)N[C@@H]2C=Cc3c([C@H](C)O)cc(nc3[C@H]2O)C(=O)O[C@@H]4C)n1)C(N)=O [TS, thiostrepton]
P. aeruginosa PAO1 [1]; PAO1, 10:90 + 0.1 μM EDDHA + 100 μM FeCl3
  planktonic cell density and biofilm stimulation with EDDHA and FeCl3: increased planktonic cell density and reduced biofilm stimulation
P. aeruginosa PAO1 [1]; PAO1, 10:90 + 0.1 μM EDDHA versus 10:90 alone
  biofilm stimulation and growth inhibition with EDDHA: shifted biofilm stimulation and growth inhibition to lower concentrations of TS
P. aeruginosa PAO1 [1]; [5]
  biofilm formation: stimulated biofilm formation
  planktonic cell density: decreased planktonic cell density
P. aeruginosa PAO1 [1]; PAO1, VBMM
  TS concentrations at which planktonic cell density decreased to below the level of detection: > 0.63 µM
P. aeruginosa PAO1 [1]; PAO1, VBMM + 0.1% casamino acids
  TS susceptibility on supplementation with casamino acids: no change in TS susceptibility
P. aeruginosa PAO1 [1]; PAO1, VBMM + 100 mM MgCl2
  TS susceptibility on supplementation with MgCl2: no effect on susceptibility
P. aeruginosa PAO1 [1]; PAO1 efflux deletion mutants
  TS susceptibility of mutants lacking the major efflux pumps: near-wild-type susceptibility
P. aeruginosa PAO1 [1]; simultaneous deletion of components of Opp (Npp) and Spp
  TS susceptibility on deletion of peptide transport systems: no effect on TS susceptibility
[2]; PA14 expressing tsr in trans (pUCP20-tsr)
  resistance to TS compared to vector-only control: significantly increased
[2]; PAO1 expressing tsr in trans (pUCP20-tsr)
  TS concentration up to which the strain was resistant: 10 µM
[3]
  decolorization of CAS agar (iron binding): lack of a color change
P. aeruginosa PAO1 [4]
  concentration of TS required to inhibit growth in serum: markedly decreased
